Calls of active or inactive are those of the source. The calls are words filed in the database; no cut-off is given here.

Data set [1] has as its target T1, Alpha-glucosidase (Saccharomyces cerevisiae S288c, UniProt P53341+P38158+P07265). As to the kind of experiment: Binding affinity to alpha-glucosidase assessed as inhibition constant. In kind it is protein assay.
Data set [2] concerns the target T1, Alpha-glucosidase. As to the kind of experiment: Inhibition of alpha-glucosidase. The data set is classed as protein assay.
Data set [3] in a line: Acute toxicity in C57BL/6J mouse assessed as pathological damages in brain at 0.5 g/Kg single dose by HE staining based analysis. The data set is classed as tissue-based. The conditions noted are these: in vivo, 500 mg/kg.
Data set [4] is described as follows: Acute toxicity in C57BL/6J mouse assessed as change in serum ALT level at 0.5 g/Kg single dose. Particulars: in vivo, 500 mg/kg.
The nature of data set [5]: Cytotoxicity against human LO2 cells assessed as cell viability measured after 24 hrs by MTT assay. In kind it is toxicity, cell-based, L02.
For data set [6], the system named is Mus musculus. As to the kind of experiment: Reduction in blood glucose concentration in male C57BL/6J mouse assessed as peak blood glucose and glucose AUC preadministered for 30 mins via gavage followed by treated 2 g/Kg of sucrose and measured up to 120 mins post sucrose challenge by sucrose loading test. The data set is classed as functional, organism-based. The conditions noted are these: dose 100.0 mg/kg, time 150.0 min.

A short description of data set [7]: Toxicity in STZ-induced diabetic C57BL/6J mouse model assessed as body weight at 100 mg/kg treated via gavage measured after 7 days. Particulars: in vivo, po, 168 h, time 7 day. The data set is classed as organism-based.
Data set [8] relates to Mus musculus. As to the kind of experiment: Anti-oxidant effect in level in STZ-induced diabetic C57BL/6J mouse model assessed as […] in total superoxide dismutase (T-SOD) level in serum at 100 mg/kg treated via gavage. The data set is classed as functional, organism-based.
Data set [9] deals with Mus musculus. As to the kind of experiment: Induction of high density lipoproteins (HDL) level in STZ-induced diabetic C57BL/6J mouse model treated via gavage by blood biochemistry index test. The data set is classed as functional, organism-based.
Data set [10] has as its system Mus musculus. As to the kind of experiment: Reduction in low density lipoproteins (LDL) level in STZ-induced diabetic C57BL/6J mouse model treated via gavage by blood biochemistry index test. In kind it is functional, organism-based.
Data set [11] has as its target T1, Alpha-glucosidase. As to the kind of experiment: Binding affinity to alpha-glucosidase assessed as inhibition constant for protein substrate (alpha-Glu-pNPG) complex. In kind it is protein assay.
In data set [12] the target is T2, Alpha-glucosidase (Saccharomyces cerevisiae S288c) (UniProt P53341+P38158+P07265). As to the kind of experiment: Mixed-type of inhibition at alpha-glucosidase assessed as decrease in Vmax by Lineweaver-Burk plot analysis. The data set is classed as protein assay.
Data set [13] concerns the target T1, Alpha-glucosidase. As to the kind of experiment: Inhibition of alpha-glucosidase using 4-Nitrophenyl-[…]-D-glucopyranoside (pNPG) as substrate. In kind it is protein assay.
Data set [14] has as its target T2, Alpha-glucosidase (Saccharomyces cerevisiae S288c). As to the kind of experiment: Inhibition of alpha-glucosidase using 4-Nitrophenyl-[…]-D-glucopyranoside (pNPG) as substrate assessed as inhibition rate at 30 uM relative control. In kind it is protein assay.
Data set [15] is described as follows: Acute toxicity in C57BL/6J mouse assessed as pathological damages in kidney at 0.5 g/Kg single dose by HE staining based analysis. Particulars: in vivo, 500 mg/kg. In kind it is tissue-based.
For data set [16], the system named is Mus musculus. As to the kind of experiment: Reduction in triglycerides (TG) level in STZ-induced diabetic C57BL/6J mouse model treated via gavage by blood biochemistry index test. The conditions noted are these: dose 25-100 mg/kg. In kind it is functional, organism-based.
For data set [17], the system named is Mus musculus. As to the kind of experiment: In vivo hypoglycemic effect in STZ-induced diabetic C57BL/6J mouse model assessed as decrease in fasting blood glucose at 100 mg/kg treated via gavage measured after 7 days by fasting blood glucose test. In kind it is functional, organism-based. Particulars: time 7.0 day.
Data set [18] deals with Mus musculus. As to the kind of experiment: Reduction in total cholesterol (CHO) level in STZ-induced diabetic C57BL/6J mouse model treated via gavage by blood biochemistry index test. In kind it is functional, organism-based.
Data set [19] concerns the target T2, Alpha-glucosidase (Saccharomyces cerevisiae S288c). As to the kind of experiment: Mixed-type of inhibition at alpha-glucosidase assessed as decrease in Km by Lineweaver-Burk plot analysis. The data set is classed as protein assay.
For data set [20] the target is unchanged. As to the kind of experiment: Binding affinity to alpha-glucosidase assessed as fluorescent intensity (lambda-ex/lambda-em 285/320 nm) by 3D fluorescence spectra. In kind it is protein assay.
Data set [21] is described as follows: Acute toxicity in C57BL/6J mouse assessed as change in serum AST level at 0.5 g/Kg single dose. Particulars: in vivo, 500 mg/kg.
Data set [22] has as its system Mus musculus. As to the kind of experiment: Anti-oxidant effect in level in STZ-induced diabetic C57BL/6J mouse model assessed as […] in glutathione (GSH) level in serum at 100 mg/kg treated via gavage. The data set is classed as functional, organism-based.
Data set [23] concerns Mus musculus. As to the kind of experiment: Anti-oxidant effect in level in STZ-induced diabetic C57BL/6J mouse model assessed as […] in malondialdehyde (MDA) level in serum at 100 mg/kg treated via gavage. The data set is classed as functional, organism-based.
Data set [24] is described as follows: Acute toxicity in C57BL/6J mouse assessed as signs of death or toxicity at 0.5 g/Kg single dose monitored over 14 days. The conditions noted are these: in vivo, 500 mg/kg, 336 h, time 14 day.
Data set [25] can be described thus: Acute toxicity in C57BL/6J mouse assessed as pathological damages in lung at 0.5 g/Kg single dose by HE staining based analysis. In kind it is tissue-based. Particulars: in vivo, 500 mg/kg.
Data set [26] has as its system Mus musculus. As to the kind of experiment: Anti-oxidant effect in level in STZ-induced diabetic C57BL/6J mouse model assessed as […] in catalase (CAT) level in serum at 100 mg/kg treated via gavage. In kind it is functional, organism-based.
In data set [27] the target is T2, Alpha-glucosidase (Saccharomyces cerevisiae S288c). As to the kind of experiment: Binding affinity to alpha-glucosidase assessed as quenching by measuring decrease in fluorescent intensity at 0 to 8 uM. In kind it is protein assay. The conditions noted are these: dose 0-8 µM.
Data set [28] can be described thus: Acute toxicity in C57BL/6J mouse assessed as change in serum BUN level at 0.5 g/Kg single dose. Particulars: in vivo, 500 mg/kg.
Data set [29] in a line: Acute toxicity in C57BL/6J mouse assessed as pathological damages in liver at 0.5 g/Kg single dose by HE staining based analysis. The conditions noted are these: in vivo, 500 mg/kg. In kind it is tissue-based.
The target in data set [30] is T2, Alpha-glucosidase (Saccharomyces cerevisiae S288c). As to the kind of experiment: Binding affinity to alpha-glucosidase assessed as quenching by measuring decrease in fluorescent intensity by […] fluorescence spectroscopy. In kind it is protein assay.
Data set [31] is described as follows: Acute toxicity in C57BL/6J mouse assessed as change in serum ALB level at 0.5 g/Kg single dose. Particulars: in vivo, 500 mg/kg.
Data set [32] deals with alpha-glucosidase (unknown origin). As to the kind of experiment: Selectivity index, ratio of CC50 for Cytotoxicity against human LO2 cells to IC50 for alpha-glucosidase (unknown origin). In kind it is toxicity, cell-based, L02. The conditions noted are these: read-out: Selectivity Index.
Data set [33] deals with T2, Alpha-glucosidase (Saccharomyces cerevisiae S288c). As to the kind of experiment: Binding affinity to alpha-glucosidase assessed as fluorescent intensity (lambda-ex/lambda-em 276/332 nm) by 3D fluorescence spectra. The data set is classed as protein assay.
A short description of data set [34]: Acute toxicity in C57BL/6J mouse assessed as pathological damages in spleen at 0.5 g/Kg single dose by HE staining based analysis. The data set is classed as tissue-based. Particulars: in vivo, 500 mg/kg.
In data set [35] the test system is Mus musculus. As to the kind of experiment: In vivo hypoglycemic effect in STZ-induced diabetic C57BL/6J mouse model assessed as decrease in postprandial blood glucose at 100 mg/kg treated via gavage measured up to 120 mins by Oral glucose tolerance test (OGTT). In kind it is functional, organism-based.
The nature of data set [36]: Acute toxicity in C57BL/6J mouse assessed as pathological damages in heart at 0.5 g/Kg single dose by HE staining based analysis. In kind it is tissue-based. The conditions noted are these: in vivo, 500 mg/kg.
For data set [37], the system named is Mus musculus. As to the kind of experiment: Reduction in blood glucose concentration in male C57BL/6J mouse assessed as peak blood glucose and glucose AUC at 100 mg/kg preadministered for 30 mins via gavage followed by treated 2 g/Kg of sucrose and measured up to 120 mins post sucrose challenge by sucrose loading test. Particulars: time 150.0 min. The data set is classed as functional, organism-based.

Data set [38] has as its target T1, Alpha-glucosidase. As to the kind of experiment: Inhibition of alpha-glucosidase using P-nitro phenyl-alpha-D-glucopyranoside as substrate assessed as substrate hydrolysis. The data set is classed as protein assay.

Turning to `O=C(Cc1cccs1)N[C@@H]1C(=O)N2C(C(=O)O)=C(CSc3nc[nH]n3)CS[C@H]12` [CEFETRIZOLE], the Ki at Alpha-glucosidase [1] was determined as 0.578 µM. At Alpha-glucosidase [2], this compound yielded an IC50 of 2.1 µM.

In the case of `CC1(C)CC[C@]2(C(=O)NCc3cn(-c4ccc(Cl)c(Cl)c4)nn3)[C@H](O)C[C@]3(C)C(=CC[C@@H]4[C@@]5(C)CC[C@H](O)C(C)(C)[C@@H]5CC[C@]43C)[C@@H]2C1`, the Activity entry was “Non-toxic” in [3]; “Non-toxic” in data set [4]; “Dose-dependent-effect; Compound Showed Comparable Effect To Acarbose” with Mus musculus [6]; “Non-toxic” in [7]; “Dose-dependent-effect” with Mus musculus [9]; “Dose-dependent-effect” with Mus musculus [10]. The Activity entry in [15] is “Non-toxic”; in the data set on Mus musculus [16], “Dose-dependent-effect”; in the data set on Mus musculus [18] it was “Dose-dependent-effect”; in data set [21] it was “Non-toxic”; in [24], “Non-toxic”; in data set [25], “Non-toxic”. Further, the Activity entry in data set [28] is “Non-toxic”; in data set [29], “Non-toxic”; in [31], “Non-toxic”; in data set [34] it was “Non-toxic”; with Mus musculus [35], “Active; Evidenced By Compound Showed Lower Auc Compared With Model Group”; in data set [36] it was “Non-toxic”. Besides, the Ki on Alpha-glucosidase [1] came to 15.31 µM; on Alpha-glucosidase [11], 10.23 µM. The CC50 at 24 h in [5] amounted to 287 µM. In addition, the result (in the data set with Mus musculus [8]; with Mus musculus [17]; in [20]; in the data set on Mus musculus [22]; in the data set on Mus musculus [23]; with Mus musculus [26]) was Active. For the same compound, the result in data set [27], in data set [30] and in data set [33] was Active. For the same compound, the inhibition result in [12] and in data set [19] was “Active” throughout. On Alpha-glucosidase [13], this compound had an IC50 of 2.72 µM. The inhibition in data set [14] turned out to be 88.1%. Also, the selectivity ratio in data set [32] was determined as 105.

As to `C[C@H]1O[C@H](O[C@H]2[C@H](O)[C@@H](O)[C@@H](O[C@H]3[C@H](O)[C@@H](O)C(O)O[C@@H]3CO)O[C@@H]2CO)[C@H](O)[C@@H](O)[C@@H]1N[C@H]1C=C(CO)[C@@H](O)[C@H](O)[C@H]1O` (stereo partly drawn), in the data set on Mus musculus [37], the outcome was Active.

In the case of `CC1(C)CC[C@]2(C(=O)O)[C@H](O)C[C@]3(C)C(=CC[C@@H]4[C@@]5(C)CC[C@H](O)C(C)(C)[C@@H]5CC[C@]43C)[C@@H]2C1`, the CC50 at 24 h in data set [5] came out at 56.2 µM. Besides, the IC50 at Alpha-glucosidase [13] worked out at 59.91 µM. For the same compound, the inhibition in data set [14] is 18.4%. The result in the data set on Mus musculus [37] was Active. In addition, in data set [32], the selectivity ratio turned out to be 0.94.

In the case of `COc1ccc(-c2noc(COC(=O)[C@]34CCC(C)(C)C[C@H]3C3=CC[C@@H]5[C@@]6(C)CC[C@H](O)C(C)(C)[C@@H]6CC[C@@]5(C)[C@]3(C)C[C@H]4O)n2)cc1`, the 50% cytotoxic concentration (CC50) at 24 h in data set [5] was 38.5 µM. For the same compound, the IC50 against Alpha-glucosidase [13] worked out at 3.41 µM. In addition, the inhibition in data set [14] came out at 94.8%. Besides, the selectivity ratio in [32] was 11.3.

As to `CC1(C)CC[C@]2(C(=O)OCc3nc(-c4ccc(Cl)cc4)no3)[C@H](O)C[C@]3(C)C(=CC[C@@H]4[C@@]5(C)CC[C@H](O)C(C)(C)[C@@H]5CC[C@]43C)[C@@H]2C1`, the CC50 at 24 h in [5] came to 108 µM. Further, the IC50 against Alpha-glucosidase [13] stood at 4.11 µM. Besides, in data set [14], the inhibition stood at 85.1%. In addition, in [32], the selectivity ratio worked out at 26.4.

As to `COc1ccc(NC(=O)Cn2cc(COc3cc(O)c4c(=O)c5ccc(OC)cc5oc4c3)nn2)c(OC)c1`, the IC50 at Alpha-glucosidase [38] amounted to 2.06 µM.

Regarding `COc1ccc(CC2(Cc3cn(-c4ccc(C)cc4)nn3)C(=O)OC(C)(C)OC2=O)cc1`, the half-maximal inhibitory concentration (IC50) at Alpha-glucosidase [38] worked out at 4.63 µM.

The values above are taken from ChEMBL document CHEMBL6109087, “Design and synthesis of azole derivatives of echinocystic acid as α-glucosidase inhibitors with hypoglycemic activity” (Eur J Med Chem, 2025).
